Data set [1] deals with Herpes simplex type 1 virus (HFEM strain). Description: Plaque reduction test in virus-infected Vero cell monolayers. Conditions: Human alphaherpesvirus 1, 144 h, concentration causing a 50% reduction in the number of virus plaques, Vero cells, 37°C for 6 days, read-out: PDD50 (the source's name). Format: cell-based. On the procedure:
(§1) Vero (African Green Monkey Kidney) cells were grown to confluence in 6 well multidishes, each well being 3.5 cm in diameter. The cells were incubated with Herpes simplex type 1 virus (HFEM strain) and overlaid with 0.5 ml of 0.9% agarose (w/v) in maintenance medium containing the test compound at a range of concentrations from 50 µg/ml in half-log dilution steps. The virus infected cultures were then incubated at 37°C for 6 days before fixing in 4% formaldehyde solution and staining with carbolfuchsin. The dishes were then examined to find what concentration of test compound causing a 50% reduction in the number of virus plaques formed (PDD50 value) and the minimum concentration of test compound which killed the cell monolayer, leaving a clear zone devoid of cells and virus plaques (MTD).

The nature of data set [2]: Minimum concentration killing the cell monolayer (MTD) in the plaque reduction test. Conditions: monkey; minimum concentration which killed the cell monolayer; Vero cells, 37°C for 6 days. It is filed as cell-based, African Green Monkey. On the procedure:
as §1

Molecules are shown by their SMILES. Values joined by “and” are separate entries in the source; they are usually repeats but may differ in a detail not shown here. Equal entries are not always repeated.

For the compound `CCCC(=O)OC[C@H]1O[C@@H](n2cc(/C=C/Br)c(=O)[nH]c2=O)C[C@@H]1OC(=O)CCC` [Example 1, E-5-(2-Bromovinyl)-3',5'-di-O-butyryl-2'-deoxyuridine], the IC50 in data set [1] was 0.2 µg/mL and 420 nM. Besides, in data set [2], the MCC at 144 h was > 100 µg/mL.
On to `CCCCC(=O)OC[C@H]1O[C@@H](n2cc(/C=C/Br)c(=O)[nH]c2=O)C[C@@H]1OC(=O)CCCC` [Example 2, E-5-(2-Bromovinyl)-3',5'-di-O-valeryl-2'-deoxyuridine], for which the IC50 in data set [1] was 0.2 µg/mL and 400 nM. Also, the MCC at 144 h in data set [2] was > 100 µg/mL.
As for `CC(=O)O[C@H]1C[C@H](n2cc(/C=C/Br)c(=O)[nH]c2=O)O[C@@H]1CO` [Example 6, 3'-O-Acetyl-E-5-(2-bromovinyl)-2'-deoxyuridine], the IC50 in data set [1] was 0.41 µg/mL and 1.1 µM. In data set [2], the MCC at 144 h is > 100 µg/mL.
As to `CCCCC(=O)O[C@H]1C[C@H](n2cc(/C=C/Br)c(=O)[nH]c2=O)O[C@@H]1CO` [Example 7, E-5-(2-Bromovinyl)-3'-O-valeryl-2'-deoxyuridine], in data set [1], the IC50 is 0.18 µg/mL and 430 nM. In addition, in data set [2], the MCC at 144 h is > 100 µg/mL.
With `CC(=O)OC[C@H]1O[C@@H](n2cc(/C=C/Br)c(=O)[nH]c2=O)C[C@@H]1O` [Example 8, 5'-O-Acetyl-E-5-(2-bromovinyl)-2'-deoxyuridine], the IC50 in data set [1] is 0.32 µg/mL and 850 nM. Moreover, in data set [2], the MCC at 144 h is > 100 µg/mL.
Take `CCCCC(=O)OC[C@H]1O[C@@H](n2cc(/C=C/Br)c(=O)[nH]c2=O)C[C@@H]1O` [Example 9, E-5-(2-Bromovinyl)-5'-O-valeryl-2'-deoxyuridine]: the IC50 in data set [1] is 0.16 µg/mL and 380 nM. For the same compound, the MCC at 144 h in data set [2] is > 100 µg/mL.
Consider `O=C(O)CCC(=O)OC[C@H]1O[C@@H](n2cc(/C=C/Br)c(=O)[nH]c2=O)C[C@@H]1OC(=O)CCC(=O)O` [Example 10, E-5-(2-Bromovinyl)-3'.5'-di-O-(3-carboxypropionyl)-2'-deoxyuridine monohydrate], for which, in data set [1], the IC50 is 55 µg/mL and 103 µM. The MCC at 144 h in data set [2] was > 100 µg/mL.
As for `O=C(O)CCC(=O)O[C@H]1C[C@H](n2cc(/C=C/Br)c(=O)[nH]c2=O)O[C@@H]1CO` [Example 11b, E-5-(2-bromovinyl)-3'-O-(3-carboxypropionyl)-2'-deoxyuridine], the IC50 in data set [1] was 0.18 µg/mL and 400 nM. The MCC at 144 h in data set [2] was > 100 µg/mL.
As to `O=C(O)CCC(=O)OC[C@H]1O[C@@H](n2cc(/C=C/Br)c(=O)[nH]c2=O)C[C@@H]1O` [Example 12, E-5-(2-bromovinyl)-5'-O-(3-carboxypropionyl)-2'-deoxyuridine], the IC50 in data set [1] was 0.35 µg/mL and 800 nM. In addition, in data set [2], the MCC at 144 h is > 100 µg/mL.
`CC(C)(C)C(=O)OC[C@H]1O[C@@H](n2cc(/C=C/Br)c(=O)[nH]c2=O)C[C@@H]1O` [Example 13, E-5-(2-Bromoyinyl)-5'-O-pivaloyl-2'-deoxyuridine]: the IC50 in data set [1] was 0.52 µg/mL and 1.3 µM. The MCC at 144 h in data set [2] is > 100 µg/mL.
Take `CC(C)(C)C(=O)OC[C@H]1O[C@@H](n2cc(/C=C/Br)c(=O)[nH]c2=O)C[C@@H]1OC(=O)C(C)(C)C` [Example 14, E-5-(2-bromovinyl)-3',5'-di-0-pivaloyl-2'-deoxyuridine]: the IC50 in data set [1] was 8.5 µg/mL and 17 µM. For the same compound, the MCC at 144 h in data set [2] is > 100 µg/mL.

The values above are taken from patent EP0061283A1, “Antiviral agents, their preparation and use” (BEECHAM GROUP PLC, priority 1981, dated 1982).
